From ChEMBL document CHEMBL4823254, “Tetrahydroquinoline-Capped Histone Deacetylase 6 Inhibitor SW-101 Ameliorates Pathological Phenotypes in a Charcot-Marie-Tooth Type 2A Mouse Model” (J Med Chem, 2021)

What was measured:
[1] = biological target: Protein deacetylase HDAC6, Homo sapiens (UniProt Q9UBN7); experiment: biochemical
Histone deacetylase 1 [2] = biological target: T1, Histone deacetylase 1 (Homo sapiens, UniProt Q13547); experiment: biochemical
Target sequence in this assay (Q13547 whole entry, looked up): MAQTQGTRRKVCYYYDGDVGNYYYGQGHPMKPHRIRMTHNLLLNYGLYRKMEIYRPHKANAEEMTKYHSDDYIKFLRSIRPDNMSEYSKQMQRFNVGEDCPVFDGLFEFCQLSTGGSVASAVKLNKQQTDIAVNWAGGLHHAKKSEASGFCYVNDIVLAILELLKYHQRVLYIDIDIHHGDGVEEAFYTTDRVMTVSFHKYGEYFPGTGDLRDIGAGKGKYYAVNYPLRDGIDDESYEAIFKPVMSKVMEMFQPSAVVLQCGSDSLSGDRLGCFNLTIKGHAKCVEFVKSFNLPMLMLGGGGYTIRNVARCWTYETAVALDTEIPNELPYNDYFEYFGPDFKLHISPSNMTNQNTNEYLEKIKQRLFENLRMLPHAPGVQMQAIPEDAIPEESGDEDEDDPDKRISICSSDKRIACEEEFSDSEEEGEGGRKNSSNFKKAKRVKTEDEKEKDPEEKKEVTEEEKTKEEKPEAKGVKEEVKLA

[3] = biological target: T2, Protein deacetylase HDAC6 (Mus musculus) (UniProt Q9Z2V5); experiment: Inhibition of HDAC6 in mouse Neuro2a cells assessed as fold increase in ratio of acetylated alpha-tubulin to alpha tubulin at 1 uM incubated for overnight by Western blot analysis; format: cell-based; settings: time 12.0 hrs
T2 sequence (whole entry): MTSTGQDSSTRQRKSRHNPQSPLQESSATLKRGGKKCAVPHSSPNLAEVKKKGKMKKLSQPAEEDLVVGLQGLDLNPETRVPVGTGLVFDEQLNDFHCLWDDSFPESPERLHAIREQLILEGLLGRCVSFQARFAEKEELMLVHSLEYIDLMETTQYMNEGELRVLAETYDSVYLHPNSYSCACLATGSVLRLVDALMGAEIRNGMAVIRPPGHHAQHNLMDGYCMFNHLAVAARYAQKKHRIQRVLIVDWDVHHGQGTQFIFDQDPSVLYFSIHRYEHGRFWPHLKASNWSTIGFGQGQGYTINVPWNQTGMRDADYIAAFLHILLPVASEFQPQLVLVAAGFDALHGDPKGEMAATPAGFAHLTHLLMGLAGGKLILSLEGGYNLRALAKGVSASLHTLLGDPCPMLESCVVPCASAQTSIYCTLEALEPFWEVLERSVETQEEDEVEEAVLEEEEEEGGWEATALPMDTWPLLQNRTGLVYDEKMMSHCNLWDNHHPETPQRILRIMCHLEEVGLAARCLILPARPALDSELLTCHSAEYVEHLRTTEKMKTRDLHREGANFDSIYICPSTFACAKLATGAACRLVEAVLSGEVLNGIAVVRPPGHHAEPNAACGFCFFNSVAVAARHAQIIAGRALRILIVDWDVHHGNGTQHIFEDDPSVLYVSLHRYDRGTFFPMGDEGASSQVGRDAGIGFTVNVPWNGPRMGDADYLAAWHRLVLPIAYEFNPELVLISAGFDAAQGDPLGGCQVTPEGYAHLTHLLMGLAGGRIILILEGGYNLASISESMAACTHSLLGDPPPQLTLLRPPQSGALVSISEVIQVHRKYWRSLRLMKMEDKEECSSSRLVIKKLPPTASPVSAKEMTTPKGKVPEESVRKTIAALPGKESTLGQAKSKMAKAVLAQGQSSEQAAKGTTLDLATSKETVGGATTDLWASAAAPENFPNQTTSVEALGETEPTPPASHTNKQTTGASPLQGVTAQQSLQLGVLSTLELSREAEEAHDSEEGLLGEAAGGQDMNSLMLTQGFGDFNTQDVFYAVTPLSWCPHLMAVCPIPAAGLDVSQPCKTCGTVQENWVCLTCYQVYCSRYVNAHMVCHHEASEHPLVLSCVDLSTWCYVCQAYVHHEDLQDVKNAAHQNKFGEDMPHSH

[4] = biological target: T2, Protein deacetylase HDAC6 (Mus musculus); experiment: Inhibition of HDAC6 in mouse Neuro2a cells assessed as fold increase in ratio of acetylated alpha-tubulin to alpha tubulin at 0.01 uM incubated for overnight by Western blot analysis; format: cell-based; settings: time 12.0 hrs
[5] = Stability in CD1 mouse pooled liver microsomes assessed as parent compound remaining measured at 60 mins in presence of NADPH by LC-MS/MS analysis; format: ADME, Microsome; settings: for remaining at 1 h: CD1, mouse, pooled liver microsomes, read-out: Stabilty
[6] = Half life in CD1 mouse pooled liver microsomes assessed as parent compound remaining measured up to 60 mins in presence of NADPH by LC-MS/MS analysis; format: ADME, Microsome; settings: for half-life: CD1, mouse, pooled liver microsomes
[7] = Stability in human pooled liver microsomes assessed as parent compound remaining measured at 60 mins in presence of NADPH by LC-MS/MS analysis; format: ADME, Microsome; settings: pooled liver microsomes, read-out: Stabilty
[8] = Half life in human pooled liver microsomes assessed as parent compound remaining measured up to 60 mins in presence of NADPH by LC-MS/MS analysis; format: ADME, Microsome; settings: pooled liver microsomes
[9] = biological target: T3, Protein deacetylase HDAC6 (Homo sapiens, UniProt Q9UBN7)
T3 sequence (Q9UBN7 whole entry): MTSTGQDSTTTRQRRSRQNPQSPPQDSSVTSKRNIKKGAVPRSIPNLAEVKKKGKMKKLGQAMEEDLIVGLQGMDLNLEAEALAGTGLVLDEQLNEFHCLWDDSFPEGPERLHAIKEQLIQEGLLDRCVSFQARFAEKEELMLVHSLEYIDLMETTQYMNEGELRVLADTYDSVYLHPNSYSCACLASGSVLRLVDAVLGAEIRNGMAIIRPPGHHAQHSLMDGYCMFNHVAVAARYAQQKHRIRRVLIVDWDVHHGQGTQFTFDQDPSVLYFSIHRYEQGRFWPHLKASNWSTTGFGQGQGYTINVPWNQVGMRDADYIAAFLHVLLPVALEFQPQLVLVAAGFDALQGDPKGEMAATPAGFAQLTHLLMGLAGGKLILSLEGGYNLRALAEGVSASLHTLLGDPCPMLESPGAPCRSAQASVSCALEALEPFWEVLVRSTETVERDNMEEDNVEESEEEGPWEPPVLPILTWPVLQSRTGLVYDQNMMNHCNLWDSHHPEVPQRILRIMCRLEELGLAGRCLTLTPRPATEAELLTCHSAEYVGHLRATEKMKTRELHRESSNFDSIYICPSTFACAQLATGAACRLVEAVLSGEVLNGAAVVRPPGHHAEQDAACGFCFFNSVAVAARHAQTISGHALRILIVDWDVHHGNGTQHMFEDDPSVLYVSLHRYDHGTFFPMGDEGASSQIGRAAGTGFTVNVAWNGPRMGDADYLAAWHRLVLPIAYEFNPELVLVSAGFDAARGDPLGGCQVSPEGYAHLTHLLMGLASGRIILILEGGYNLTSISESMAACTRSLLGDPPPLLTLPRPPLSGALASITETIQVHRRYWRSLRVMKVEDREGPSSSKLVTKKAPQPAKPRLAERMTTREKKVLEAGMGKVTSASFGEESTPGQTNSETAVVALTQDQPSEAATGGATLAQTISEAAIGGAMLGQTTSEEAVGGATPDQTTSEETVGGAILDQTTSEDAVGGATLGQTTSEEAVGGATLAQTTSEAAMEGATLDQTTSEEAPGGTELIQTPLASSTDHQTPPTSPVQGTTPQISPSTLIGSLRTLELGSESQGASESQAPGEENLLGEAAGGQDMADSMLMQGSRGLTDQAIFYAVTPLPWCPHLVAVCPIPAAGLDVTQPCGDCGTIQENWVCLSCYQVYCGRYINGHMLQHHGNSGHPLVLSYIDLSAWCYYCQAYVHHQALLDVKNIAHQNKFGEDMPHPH
Description: Inhibition of recombinant human HDAC6 using Ac-GAK(Ac)-AMC as substrate preincubated for 10 mins followed by substrate addition and measured after 30 mins by fluorescence-based assay

Histone deacetylase 1 [10] = biological target: T1, Histone deacetylase 1
Target sequence in this assay (Q13547 whole entry): as the sequence (Q13547 whole entry, looked up) above
Description: Inhibition of recombinant human HDAC1 using Ac-GAK(Ac)-AMC as substrate preincubated for 10 mins followed by substrate addition and measured after 30 mins by fluorescence-based assay

Histone deacetylase 8 = biological target: T4, Histone deacetylase 8 (Homo sapiens, UniProt Q9BY41)
T4 sequence (Q9BY41 whole entry): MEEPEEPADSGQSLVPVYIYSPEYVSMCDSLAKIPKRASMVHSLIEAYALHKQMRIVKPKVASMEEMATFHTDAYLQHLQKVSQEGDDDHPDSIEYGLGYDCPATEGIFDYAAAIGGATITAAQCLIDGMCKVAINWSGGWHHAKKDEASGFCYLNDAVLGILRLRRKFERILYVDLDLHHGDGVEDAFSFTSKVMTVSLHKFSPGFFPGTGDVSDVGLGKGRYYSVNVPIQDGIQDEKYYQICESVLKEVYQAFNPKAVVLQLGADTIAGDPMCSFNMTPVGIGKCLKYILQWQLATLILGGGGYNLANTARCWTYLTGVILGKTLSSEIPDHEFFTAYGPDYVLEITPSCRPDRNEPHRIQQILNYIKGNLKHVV
Description: Inhibition of recombinant human HDAC8 using Boc-Lys(TFA)-AMC as substrate preincubated for 10 mins followed by substrate addition and measured after 30 mins by fluorescence-based assay

| SMILES | IC50 [1] [nM] | IC50 (Histone deacetylase 1 [2]) [nM] | fold change (FC) [3] | fold change (FC) [4] | remaining at 1 h [5] [%] | half-life [6] [h] | remaining at 1 h [7] [%] | half-life [8] [h] | IC50 [9] [nM] | IC50 (Histone deacetylase 1 [10]) [nM] | IC50 (Histone deacetylase 8) [nM] | Stabilty ([5]; mouse, microsomes, 1 h) [%] | t1/2 ([6]; mouse, microsomes, 1 h) [h] | Ratio IC50 (Homo sapiens) |
| --- | --- | --- | --- | --- | --- | --- | --- | --- | --- | --- | --- | --- | --- | --- |
| CC(c1ccc(C(=O)NO)cc1)N1CCCc2cc(Cl)ccc21 (stereo unspecified) | 383 | 8430 | – | – | – | – | – | – | – | – | – | – | – | 22 |
| O=C(NO)c1ccc(CN2CCCCc3ccccc32)cc1 | – | – | 0.78 | 0.98 | 34.7 | 0.66 | 83.9 | 4.03 | 5 | 1320 | 5610 | – | – | – |
| O=C(NO)c1ccc(CN2C(=O)CCc3cc(Br)ccc32)cc1 | – | – | – | – | – | – | – | – | 0.9 | 107 | 743 | – | – | – |
| NC(=O)c1ccc2c(c1)CCCCN2Cc1ccc(C(=O)NO)cc1 | – | – | 1.19 | 2.4 | – | – | – | – | 2.4 | 150 | 1060 | – | – | – |
| CCCc1ccc2c(c1)CCC(=O)N2Cc1ccc(C(=O)NO)cc1 | – | – | – | – | – | – | – | – | 12 | 306 | 2680 | – | – | – |
| N#Cc1ccc2c(c1)CCCCN2Cc1ccc(C(=O)NO)cc1 | – | – | 0.98 | – | 80.8 | 3.26 | 84.9 | 4.21 | 4.6 | 248 | 2220 | – | – | – |
| N#Cc1ccc2c(c1)CCCN2Cc1ccc(C(=O)NO)cc1 | – | – | – | – | – | – | – | – | 1.3 | 141 | 1490 | – | – | – |
| O=C(NO)c1ccc(CN2CCCc3cc(F)c(Cl)cc32)cc1 | 3.4 | 1870 | 1.53 | 1.14 | – | – | – | – | – | – | – | – | – | 550 |
| O=C(NO)c1ccc(CN2CCCc3cc(Cl)c(Cl)cc32)cc1 | 3.6 | 2620 | 1.54 | 1.38 | – | – | – | – | – | – | – | – | – | 728 |
| O=C(NO)c1ccc(CN2CCCCc3cc(Cl)ccc32)cc1 | – | – | 0.55 | 0.89 | 34.7 | 1.01 | 83.9 | 35.5 | 1 | 1900 | 8640 | – | – | – |
| CC1(C)CCN(Cc2ccc(C(=O)NO)cc2)c2ccc(Cl)cc21 | 37.8 | 19600 | – | – | 6.8 | 0.265 | – | – | – | – | – | – | – | 519 |
| O=C(NO)c1ccc(CN2C(=O)CCc3cc(C4CC4)ccc32)cc1 | – | – | – | – | – | – | – | – | 2.7 | 117 | 1500 | – | – | – |
| O=C(NO)c1ccc(CN2CCCc3cc(Cl)ccc32)c(F)c1 | 12.4 | 21200 | 1.38 | 1.21 | 17.2 | 0.413 | – | – | – | – | – | – | – | 1710 |
| O=C(NO)c1ccc(C(=O)N2CCCc3cc(Cl)ccc32)cc1 | 961 | 10500 | – | – | – | – | – | – | – | – | – | – | – | 11 |
| O=C(NO)c1ccc(CN2CCCCc3cc(-c4cc[nH]n4)ccc32)cc1 | – | – | 1.78 | 0.95 | 10.1 | 0.305 | 15 | 0.37 | 17 | 1080 | 2820 | – | – | – |

Second part, led by results:

| IC50 [1] [nM] | IC50 (Histone deacetylase 1 [2]) [nM] | fold change (FC) [3] | fold change (FC) [4] | remaining at 1 h [5] [%] | half-life [6] [h] | remaining at 1 h [7] [%] | half-life [8] [h] | IC50 [9] [nM] | IC50 (Histone deacetylase 1 [10]) [nM] | IC50 (Histone deacetylase 8) [nM] | Stabilty ([5]; mouse, microsomes, 1 h) [%] | t1/2 ([6]; mouse, microsomes, 1 h) [h] | SMILES | Ratio IC50 (Homo sapiens) |
| --- | --- | --- | --- | --- | --- | --- | --- | --- | --- | --- | --- | --- | --- | --- |
| 45.1 | 21100 | – | – | – | – | – | – | – | – | – | – | – | CC1(C)CCN(Cc2ccc(C(=O)NO)cc2)c2ccc(F)cc21 | 468 |
| 161 | 14100 | – | – | – | – | – | – | – | – | – | – | – | CC1(C)CCc2cc(F)ccc2N1Cc1ccc(C(=O)NO)cc1 | 88 |
| – | – | 1.51 | 0.93 | – | – | 92.6 | 9.62 | 2.9 | 276 | 2080 | 77.7 | 29.05 | O=C(NO)c1ccc(CN2C(=O)CCc3cc(Cl)ccc32)cc1 | – |
| 328 | 19600 | – | – | 20.3 | 0.423 | – | – | – | – | – | – | – | CC1(C)CCc2cc(Cl)ccc2N1Cc1ccc(C(=O)NO)cc1 | 60 |
| 4.8 | 3220 | 1.5 | 1.16 | 19.1 | 0.428 | – | – | – | – | – | – | – | O=C(NO)c1ccc(CN2CCCc3cc(Cl)c(F)cc32)cc1 | 670 |
| – | – | – | – | – | – | – | – | 9 | 1590 | 4360 | – | – | O=C(NO)c1ccc(CN2CCCCc3cc(Br)ccc32)cc1 | – |
| – | – | 1.11 | 0.91 | – | – | – | – | – | – | – | – | – | CN1CCc2c(c3ccccc3n2Cc2ccc(C(=O)NO)cc2)C1 | – |
| – | – | 2.14 | 2.65 | – | – | – | – | 0.3 | 184 | 792 | – | – | O=C(NO)c1ccc(CN2CCCc3cc(-c4cc[nH]n4)ccc32)cc1 | – |
| – | – | 1.73 | 2.81 | 68.1 | 1.83 | 95.3 | 12 | 0.8 | 126 | 1170 | – | – | O=C(NO)c1ccc(CN2C(=O)CCCc3cc(Cl)ccc32)cc1 | – |
